Entries after “also recorded” stand apart in the source; their conditions may differ.
Legend:
Format in all cases: in vivo, human
[1] = tested on: central nervous system effects of THC; assay: Phase 2 randomized, double-blind, placebo-controlled THC challenge study, PD endpoints (10.5 mg THC + 50 or 100 mg Compound 1); settings: for Proportion of subjects reporting feeling high: score of at least 20/100 on VAS feeling high scale
[2] = tested on: central nervous system effects of THC; assay: THC challenge PD, 21-30 mg THC with 10 or 30 mg Compound 1, simultaneous or 1 hr delay (Examples 4 and 9)
Experimental: FIG. 14 depicts a randomized, double-blind, placebo controlled study. Left to right. (a) 14 Adult volunteers ages 18-45 are selected; (b) A single oral dose and 24-hour assessment is conducted for groups (1) 21 mg THC+placebo; and (2) 21 mg THC+30 mg ANEB-001 (c) 7 to 14 day follow up is conducted. Primary endpoints include inhibition of central nervous system effects of THC using (a) visual analog scale “feeling high”; (b) visual analog scale “alertness”; (c) body sway; (d) heart rate. Secondary endpoints include additional efficacy metrics, safety/tolerability, PK, and PK/PD correlations.
FIG. 15 depicts a randomized, double-blind, placebo controlled study. Left to right: (a) 11 Adult volunteers ages 18-45 are selected; (b) A single oral dose and 24-hour assessment is conducted for groups (1) 21 mg THC+placebo; and (2) 21 mg THC+10 mg ANEB-001 (c) 7 to 14 day follow up is conducted. Primary endpoints include inhibition of central nervous system effects of THC using (a) visual analog scale “feeling high”; (b) visual analog scale “alertness”; (c) body sway; (d) heart rate. Secondary endpoints include additional efficacy metrics, safety/tolerability, PK, and PK/PD correlations.
Following the general methods of Example 2, the study design was adjusted such that groups received either (a) THC (21 mg)+placebo or (b) THC (21 mg)+Compound 1 (30 mg) (FIG. 14) or either (a) THC (21 mg)+placebo or (b) THC (21 mg)+Compound 1 (10 mg) (FIG. 15). […] Summary of pharmacokinetics of THC with 30 mg ANEB-001 challenge (FIG. 18A and FIG. 18B), AUC after 5 hours (FIG. 18C), AUC last (FIG. 18D) and Cmax (FIG. 18E).
Following the general methods of Examples 1-3, the study design was adjusted such that Compound 1 was administered 1 hour after administration of THC. Groups received either (a) THC (21 mg)+Compound 1 (10 mg); (b) THC […]+Compound 1 (10 mg); (c) THC (30 mg)+Compound 1 (10 mg); or (d) THC (30 mg)+Compound 1 (10 mg). […] Endpoints were then evaluated as generally described in Example 1, and PK properties were measured as shown for the general methods of Example 2.

[3] = tested on: central nervous system effects of THC; assay: THC challenge PD, 10.5 mg THC + 30 mg Compound 1 (Example 3); settings: THC (10.5 mg) + Compound 1 (30 mg)
Experimental: Following the general methods of Example 1, the study design was adjusted such that groups received either (a) THC (10.5 mg)+placebo or (b) THC (10.5 mg)+Compound 1 (30 mg). Pharmacodynamic properties were then measured for Compound 1.

[4] = 10.5 mg THC + 50 or 100 mg ANEB-001, p<0.05, unpaired t-test
[5] = 10.5 mg THC + 50 or 100 mg Compound 1 vs THC alone
[6] = 10.5 mg THC + 50 or 100 mg Compound 1 vs THC alone, not statistically significant overall
[7] = 10.5 mg THC + 50 or 100 mg Compound 1 vs THC alone, overall p<0.01
[8] = 30 mg THC, 10 mg ANEB-001, 1 hr Delay, p = 0.0007
[9] = 30 mg THC, 10 mg ANEB-001, 1 hr Delay, p = <0.0001
[10] = 21-30 mg THC, 10 mg ANEB-001, 1 hr Delay (pooled), p = <0.0001

With `CC(C)(C)NC(=O)N1CC(O[C@H](c2ccc(Cl)cc2)c2ccccc2C(F)(F)F)C1` [Compound 1, (R)—N-(tert-butyl)-3-((4-chlorophenyl)(2-(trifluoromethyl)phenyl)methoxy)azetidine-1-carboxamide] the “Proportion of subjects reporting feeling high” value ([1]; 10.5 mg THC + 50 mg Compound 1) was 10%, the “Responder Rate for Reduction in Feeling High” value ([1]; 10.5 mg THC + 50 mg or 100 mg Compound 1, p<0.01 vs THC alone) was 60% and the “Proportion of subjects reporting feeling high” value ([1]; 10.5 mg THC + 100 mg Compound 1) was 30%. The “Maximum change from baseline in body sway” value [1, 4] was “significant reduction in the maximum change from baseline for body sway”, the “Maximum change from baseline in heart rate” value [1, 4] was “significant reduction in the maximum change from baseline for heart rate” and the VAS calmness [1, 5] was “no overall significant difference between the treatment groups”. The VAS internal perception [1, 5] was “no significant differences between treatments”, the VAS mood [1, 5] was “no significant differences between treatments” and the Heart rate [1, 6] was “trend towards normalization of heart rate; also recorded: trend to normalization of heart rate”. For the same compound, the THC-induced body sway [1, 6] was “trend towards reduced body sway; also recorded: trended to improvement”, the “VAS feeling high, time course” value ([1]; 10.5 mg THC + 50 or 100 mg Compound 1 vs THC alone, overall p<0.0001) was “highly significant reduction in feeling high; also recorded: Highly significant and sustained improvement” and the VAS alertness [1, 7] was “significantly inhibited the reduction in alertness; also recorded: significant improvement in alertness”. The VAS external perception [1, 7] was “significantly inhibited the change in perception; also recorded: Significant improvement at both dose levels”, the “Body Sway, Alertness and Feeling High vs. placebo” value ([2]; 21 mg THC + 30 mg ANEB-001) was “improvements in Body Sway (FIG. 16A), Alertness (FIG. 16B) and Feeling High (FIG. 16C)” and the “VAS Feeling High log(mm)” value ([2]; 21 mg THC, 10 mg ANEB-001, 1 hr Delay, p = 0.0380) was −0.5545 log(mm). For the same compound, the “Body Sway (mm)” value ([2]; 21 mg THC, 10 mg ANEB-001, 1 hr Delay, p = 0.0406) was −3%, the “VAS External Perception log(mm)” value ([2]; 21 mg THC, 10 mg ANEB-001, 1 hr Delay, p = 0.0530) was “Modified” and the “Heart Rate (supine) (bpm)” value ([2]; 21 mg THC, 10 mg ANEB-001, 1 hr Delay, p = 0.0589) was 10.3 bpm. The “VAS Alertness (mm)” value ([2]; 21 mg THC, 10 mg ANEB-001, 1 hr Delay, p = 0.4834) was 4.4 mm, the “Responder Rate (VAS Feeling High)” value ([2]; 21 mg THC, 10 mg ANEB-001, 1 hr Delay, p = <0.0001) was “Reversed” and the “VAS Feeling High log(mm)” value ([2]; 21 mg THC, 10 mg ANEB-001, Simultaneous, p = 0.0001) was −0.7072 log(mm). For the same compound, the “Responder Rate (VAS Feeling High)” value ([2]; 21 mg THC, 10 mg ANEB-001, Simultaneous, p = 0.0002) was “Reversed”, the “VAS External Perception log(mm)” value ([2]; 21 mg THC, 10 mg ANEB-001, Simultaneous, p = 0.0037) was “Reversed” and the “VAS Alertness (mm)” value ([2]; 21 mg THC, 10 mg ANEB-001, Simultaneous, p = 0.0047) was 9.2 mm. For the same compound, the “Body Sway (mm)” value ([2]; 21 mg THC, 10 mg ANEB-001, Simultaneous, p = 0.0069) was −29.3%, the “VAS Internal Perception log(mm)” value ([2]; 21 mg THC, 10 mg ANEB-001, Simultaneous, p = 0.0120) was “Reversed” and the “Heart Rate (supine) (bpm)” value ([2]; 21 mg THC, 10 mg ANEB-001, Simultaneous, p = 0.7264) was −1.1 bpm. For the same compound, the “VAS External Perception log(mm)” value ([2]; 21 mg THC, 30 mg ANEB-001, Simultaneous, p = 0.0010) was “Reversed”, the “VAS Alertness (mm)” value ([2]; 21 mg THC, 30 mg ANEB-001, Simultaneous, p = 0.0013) was 10.8 mm and the “VAS Internal Perception log(mm)” value ([2]; 21 mg THC, 30 mg ANEB-001, Simultaneous, p = 0.0016) was “Reversed”. For the same compound, the “Responder Rate (VAS Feeling High)” value ([2]; 21 mg THC, 30 mg ANEB-001, Simultaneous, p = 0.0019) was “Reversed”, the “Body Sway (mm)” value ([2]; 21 mg THC, 30 mg ANEB-001, Simultaneous, p = 0.0023) was −30.6% and the “Heart Rate (supine) (bpm)” value ([2]; 21 mg THC, 30 mg ANEB-001, Simultaneous, p = 0.4730) was −2.2 bpm. The “VAS Feeling High log(mm)” value ([2]; 21 mg THC, 30 mg ANEB-001, Simultaneous, p = <0.0001) was −0.7856 log(mm), the “VAS External Perception log(mm)” value ([2]; 21 mg THC, 10-30 mg ANEB-001, Simultaneous (pooled), p = 0.0004) was “Reversed” and the “Responder Rate (VAS Feeling High)” value ([2]; 21 mg THC, 10-30 mg ANEB-001, Simultaneous (pooled), p = 0.0005) was “Reversed”. The “VAS Alertness (mm)” value ([2]; 21 mg THC, 10-30 mg ANEB-001, Simultaneous (pooled), p = 0.0007) was 15.6 mm, the “VAS Internal Perception log(mm)” value ([2]; 21 mg THC, 10-30 mg ANEB-001, Simultaneous (pooled), p = 0.0012) was “Reversed” and the “Body Sway (mm)” value ([2]; 21 mg THC, 10-30 mg ANEB-001, Simultaneous (pooled), p = 0.0013) was −30.0%. For the same compound, the “Heart Rate (supine) (bpm)” value ([2]; 21 mg THC, 10-30 mg ANEB-001, Simultaneous (pooled), p = 0.8247) was 0.6 bpm, the “VAS Feeling High log(mm)” value ([2]; 21 mg THC, 10-30 mg ANEB-001, Simultaneous (pooled), p = <0.0001) was −0.7364 log(mm) and the THC-induced body sway ([2]; 21 mg or 30 mg THC, coadministration or Compound 1 after THC) was “significant reduction in body sway”. The “VAS bad drug effect” value ([2]; 30 mg THC, 10 mg ANEB-001, 1 hr Delay, p = 0.0003) was “Reversed”, the “VAS External Perception log(mm)” value [2, 8] was “Reversed” and the “VAS Internal Perception log(mm)” value [2, 8] was “Reversed”. The “VAS Alertness (mm)” value ([2]; 30 mg THC, 10 mg ANEB-001, 1 hr Delay, p = 0.0042) was 10.8 mm, the “VAS good drug effect” value ([2]; 30 mg THC, 10 mg ANEB-001, 1 hr Delay, p = 0.0112) was “Reversed” and the “Body Sway (mm)” value ([2]; 30 mg THC, 10 mg ANEB-001, 1 hr Delay, p = 0.0196) was −34.8%. For the same compound, the “Heart Rate (supine) (bpm)” value ([2]; 30 mg THC, 10 mg ANEB-001, 1 hr Delay, p = 0.1119) was 6.7 bpm, the “Responder Rate (VAS Feeling High)” value [2, 9] was “Reversed” and the “VAS Feel drug effect” value [2, 9] was “Reversed”. For the same compound, the “VAS Feeling High log(mm)” value [2, 9] was −0.8581 log(mm), the “Responder Rate (VAS Feeling High)” value ([2]; 21-30 mg THC, 10 mg ANEB-001, 1 hr Delay (pooled), p = 0.0002) was “Reversed” and the “VAS Feel drug effect” value ([2]; 21-30 mg THC, 10 mg ANEB-001, 1 hr Delay (pooled), p = 0.0003) was “Reversed”. The “Body Sway (mm)” value ([2]; 21-30 mg THC, 10 mg ANEB-001, 1 hr Delay (pooled), p = 0.0014) was −32.4%, the “VAS good drug effect” value ([2]; 21-30 mg THC, 10 mg ANEB-001, 1 hr Delay (pooled), p = 0.0021) was “Reversed” and the “VAS Alertness (mm)” value ([2]; 21-30 mg THC, 10 mg ANEB-001, 1 hr Delay (pooled), p = 0.0024) was 11.3 mm. For the same compound, the “VAS Internal Perception log(mm)” value ([2]; 21-30 mg THC, 10 mg ANEB-001, 1 hr Delay (pooled), p = 0.0040) was “Reversed”, the “Heart Rate (supine) (bpm)” value ([2]; 21-30 mg THC, 10 mg ANEB-001, 1 hr Delay (pooled), p = 0.0125) was −8.1 bpm and the “VAS bad drug effect” value ([2]; 21-30 mg THC, 10 mg ANEB-001, 1 hr Delay (pooled), p = 0.0274) was “Reversed”. For the same compound, the “VAS External Perception log(mm)” value [2, 10] was “Reversed”, the “VAS Feeling High log(mm)” value [2, 10] was −0.7028 log(mm) and the “VAS drug effects (feeling any drug effect)” value ([2]; Compound 1 one hour after THC, vs THC alone) was “highly significant reduction in feeling any drug effect”. For the same compound, the “Proportion of responders (reduction in feeling high)” value ([2]; THC 21 or 30 mg, 10 mg or 30 mg Compound 1, vs THC alone) was “highly significant increase in the proportion of responders”, the VAS alertness ([2]; coadministration or Compound 1 after THC, vs THC alone) was “significant reduction in VAS alertness” and the “Recovery time (feeling high time course)” value ([2]; coadministration or Compound 1 one hour after THC) was “reduced recovery time by several hours”. For the same compound, the VAS feeling high ([2]; coadministration or Compound 1 one hour after THC, vs THC alone, overall p<0.0001) was “highly significant reduction in feeling high”, the “All primary outcomes, pre-specified pooled analysis” value ([2]; combined 21 mg or 30 mg THC, 10 mg Compound 1 one hour after THC) was “achieved statistical significance on all primary outcomes” and the “Key psychotropic effects of THC” value ([2]; single oral 10 mg Compound 1, 1 hour after THC challenge, THC doses as high as 30 mg) was “rapidly reversed key psychotropic effects of THC”. For the same compound, the “Body sway, VAS alertness and VAS feeling high vs. placebo” value [3] was “improvements in metrics such as body sway, VAS alertness, and VAS feeling high”.

— patent publication US20260091020A1, “TREATMENT OF ACUTE CANNABINOID OVERDOSE” (Anebulo Pharmaceuticals, Inc., priority 2022, published 2026)
